Laboratory results reported in patent US20130065792A1, “INDUCIBLE EXPRESSION OF SGLT5, METHODS AND KITS USING THE SAME” (BOEHRINGER INGELHEIM INTERNATIONAL GMBH, priority 2011, published 2013).

Legend:
Type in all cases: cell-based
SGLT5 [1] = biological target: T1, SGLT5 (Homo sapiens, UniProt A0PJK1); assay: Time dependent specific uptake of [14C]-monosaccharides by T-Rex 293-hSGLT5 cells (FIG. 3); conditions: 1 mM monosaccharide, 5-60 min, tetracycline induced T-Rex 293-hSGLT5 cells
T1 construct: expressed in transfected cells; host or cells: T-Rex 293 cells (Invitrogen), stably transfected with pT-Rex-Dest30-hSGLT5; expression induced with tetracycline; deposited clone DSM ACC3096
T1 sequence (A0PJK1 1-596): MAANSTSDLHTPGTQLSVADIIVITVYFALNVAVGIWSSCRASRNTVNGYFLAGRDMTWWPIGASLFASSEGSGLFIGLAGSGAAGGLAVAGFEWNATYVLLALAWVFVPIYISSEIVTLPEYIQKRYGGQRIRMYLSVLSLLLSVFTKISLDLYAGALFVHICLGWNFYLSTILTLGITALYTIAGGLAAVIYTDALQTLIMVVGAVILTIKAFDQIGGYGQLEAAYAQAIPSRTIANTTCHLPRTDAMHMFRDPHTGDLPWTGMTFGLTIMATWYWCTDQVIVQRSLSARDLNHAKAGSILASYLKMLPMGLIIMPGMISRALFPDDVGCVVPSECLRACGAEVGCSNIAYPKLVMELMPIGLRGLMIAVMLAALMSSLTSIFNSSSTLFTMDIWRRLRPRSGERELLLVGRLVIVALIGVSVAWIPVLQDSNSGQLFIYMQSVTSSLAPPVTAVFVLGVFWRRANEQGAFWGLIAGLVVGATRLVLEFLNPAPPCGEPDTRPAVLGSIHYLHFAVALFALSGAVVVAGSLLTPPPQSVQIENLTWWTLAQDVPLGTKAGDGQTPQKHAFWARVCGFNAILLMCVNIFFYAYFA
Procedure: [^14C]-saccharide uptake experiments: 30000 cells per well were seeded in white poly-D-lysine-coated 96-well plates and incubated over night. The expression of hSGLT5 was induced 24 h before the start of uptake experiments by the addition of 1 μg/ml tetracycline to the cells. For the assay, cells were washed twice with 250 μl pre-treatment buffer [140 mM cholinchloride in basal buffer (10 mM HEPES; 5.4 mM KCl; 2.8 mM CaCl2*2 H2O; 1.2 mM MgSO4*7 H2O; 0.1% BSA, pH 7.4) and incubated in 200 μl pre-treatment buffer for 25 min at 37° C. Pre-treatment buffer was removed and 200 μl uptake buffer was added to the cells (140 mM NaCl in basal buffer containing 1 mM cold monosaccharide [either glucose, fructose, mannose, galactose or alphamethyl glucopyranoside (AMG), respectively]+0,6 μCi [^14C]-labelled monosaccharide [either glucose, fructose, mannose, galactose or alpha-methyl glucopyranoside (AMG), respectively] (Hartmann Analytics, Mannheim, Germany) and 10 μM Cytochalasin B. After incubation for 5, 10, 30 and 60 minutes at 37° C., the cells were washed three times with 300 μl PBS (Cambrex, Verviers, Belgium) and then lysed in 0.1 N NaOH with intermittent shaking for 5 min. The lysate was mixed with 200 μl MikroScint 40 Scintillator, shaken for 15 min and counted for radioactivity in the TopCount NXT (Canberra Packard, Schwadorf, Austria). Specific sugar uptake was determined by subtracting non-specific uptake of each sugar (in the presence of choline chloride) from total uptake of the same sugar (in the presence of sodium chloride).
Furthermore, a protocol was established to measure the specific uptake of monosaccharides e.g. mannose, fructose, glucose, AMG and galactose by hSGLT5, It could be shown that the transporter takes up mannose and fructose with high affinity and hardly transports glucose, AMG and galactose (FIG. 3). […] Specific uptake was calculated by subtracting the respective monosaccharide uptake in the presence of choline chloride from the total uptake of the same monosaccharide in the presence of sodium chloride.

SGLT5 [2] = biological target: T1, SGLT5; assay: Competitive assay to inhibit C14-labeled AMG uptake into transfected HEK cells (Reference Example); conditions: constitutive expression; called unreliable
Procedure: SGLT5 was cloned as described in Example 1. However, instead of using the inducible pT-Rex-Dest30 plasmid the sequence was inserted into the expression plasmid pcDNA3.1/V5-His for constitutive expression. Using lipofection HEK/293 cells (ATCC) were stably transfected. The expression plasmid contained resistance to geneticin as a selection marker. The cells were cultivated in DMEM with 10% FCS and […] geneticin for selecting transfected cells. Expression was tested by RT-PCR.
Furthermore, cells were tested for uptake of C^14-labeled galactose in an assay as described in Example 1. […] In addition, a competitive assay to inhibit C^14-labeled AMG uptake into the transfected HEK cells was performed.

SGLT5 [3] = biological target: T1, SGLT5; assay: FLIPR membrane potential assay in HEK/293 cells constitutively expressing SGLT5 (Reference Example); conditions: constitutive expression; results later called unreliable and irreproducible
Procedure: FLIPR assay: Changes in membrane potential can be assayed using the FLIPR TETRA Assay (Molecular Devices). In this method cells are loaded with a fluorescent dye, which emits light of a different wavelength dependent on the membrane potential. This can be recorded in suitable cell culturing plates and monitored over time in the presence/absence of a test substance.
10.000 to 30.000 cells were seeded in a 384 well plate (black, lysine coated with transparent bottom, Becton Dickinson) and were incubated over night at 37° C. and 5% CO2. The next day they were washed twice with 50 μl assay buffer (140 mM NaCl; 1.26 mM CaCl2; 0.49 mM MgCl2*6 H2O; 0.41 mM MgSO4*7 H2O; 5.33 mM KCl; 0.44 mM KH2PO4−pH =7.4). […]
After starting the measurement ten sample points were assayed at intervals of 3 seconds. Thereafter […] of the dissolved test substances (e.g. monosaccharide and/or KCl) were added and 30 measurements were recorded in 3-second intervals, thereafter 16 measurements were recorded in 15-second intervals. […]
Cells showing strong expression by PCR were subcloned and propagated. […] According to the fluorescence signal induced by KCl a number of 30,000 cells/well was determined to provide the highest fluorescence signal. […] Thereafter cells were exposed to glucose, galactose, fructose, AMG or mannose in different concentrations and changes in fluorescence were recorded as described in Example 1. […]

SGLT5 [4] = biological target: T1, SGLT5; assay: Uptake of C14-labeled galactose in HEK/293 cells constitutively expressing SGLT5 (Reference Example); conditions: galactose 0.1 mM; constitutive expression; called unreliable
Procedure: [^14C]-saccharide uptake experiments: 30000 cells per well were seeded in white poly-D-lysine-coated 96-well plates and incubated over night. The expression of hSGLT5 was induced 24 h before the start of uptake experiments by the addition of 1 μg/ml tetracycline to the cells. For the assay, cells were washed twice with 250 μl pre-treatment buffer [140 mM cholinchloride in basal buffer (10 mM HEPES; 5.4 mM KCl; 2.8 mM CaCl2*2 H2O; 1.2 mM MgSO4*7 H2O; 0.1% BSA, pH 7.4) and incubated in 200 μl pre-treatment buffer for 25 min at 37° C. […] The lysate was mixed with 200 μl MikroScint 40 Scintillator, shaken for 15 min and counted for radioactivity in the TopCount NXT (Canberra Packard, Schwadorf, Austria). Specific sugar uptake was determined by subtracting non-specific uptake of each sugar (in the presence of choline chloride) from total uptake of the same sugar (in the presence of sodium chloride). […]

- specific uptake / affinity for hSGLT5 (in words) (SGLT5 [1]): very low affinity
- inhibitory effect on C14-labeled AMG uptake (in words) (SGLT5 [2]): highest inhibitory effect
- signal for depolarisation (FLIPR, in words) (SGLT5 [3]): strongest signal for depolarisation
- uptake signal relative to the negative control (absolute cpm) (SGLT5 [4]): approximately 3 fold
Structure (SMILES): O=C[C@H](O)[C@@H](O)[C@@H](O)[C@H](O)CO [galactose]
